Columns and labels:
[1] = system: ErbB2 transcript synthesis; test: Nuclear run-off assay of ErbB2 transcript synthesis in SKBR3 cells; type: cell-based, human; conditions: 5 hours, 0.4 μM TSA
Procedure: The conserved and singular DNase I hypersensitivity sites found in the proximal ErbB2 and ESX promoters (12,15) were assayed as before (12). Briefly, following culture treatment of cells, nuclei isolated by mild detergent lysis in a buffer containing 10 mM Hepes pH 7.9, 1.5 mM MgCl2, 10 mM KCl, 0.4% NP-40, 10% glycerol and 1 mM DTT. […]
Nuclear run-off experiments were performed on ErbB2 overexpressing breast cancer cells to confirm the conclusion drawn from TSA induced downregulation of luciferase expression in MCF/R06pGL-9 cells that HDAC inhibitors can suppress ErbB2 promoter activity and presumably also repress ErbB2 transcription. […] Slot blot hybridization stringency was adjusted so that no signal could be detected from those control slots containing the empty plasmid.

ErbB2 promoter = test: Transiently transfected (episomal) RO6pGL ErbB2 promoter-reporter in MCF-7 cells; type: cell-based, human; conditions: transient transfection of RO6pGL into MCF-7 cells; 0.4 μM TSA, 24 hour
Procedure: FIGS. 11A and 11B show trichostatin A (TSA) responsiveness and DNase I hypersensitivity comparisons between the genomically integrated vs. episomally introduced ErbB2 promoter-reporter construct, RO6pGL, in MCF-7 cells. FIG. 11A: Luciferase activity (relative luminometer units) of the MCF/RO6pGL-9 subline compared to parental MCF-7 cells transiently transfected with the same ErbB2 promoter-reporter plasmid (RO6pGL) and after 24 hour treatment with 0.4 μM TSA, normalized against their respective non-treatment (vehicle only) control conditions. FIG. 11B: DNase 1 hypersensitivity analysis (described in Methods) of nuclei from MCF/RO6pGL-9 vs. MCF-7 cells transiently transfected with RO6pGL, following similar culture treatments with TSA.
In an episomal context and following transient transfection of the RO6pGL construct into MCF-7 cells, TSA produced diametrically opposite (>10-fold stimulatory) effects on this same ErbB2 promoter-driven reporter (FIG. 11). Southern blot comparisons of DNase I treated MCF/R06pGL-9 cell nuclei and those from transfected MCF-7 cells bearing the episomally introduced R06pGL plasmid confirmed the lack of a discrete DNase-I hypersensitivity site in the episomal R06pGL and the presence of such a site in the genomically integrated R06pGL, similar in location and intensity to that found within the endogenous ErbB2 promoter (FIG. 11). […]

CC(/C=C/C(=O)NO)=C\[C@@H](C)C(=O)c1ccc(N(C)C)cc1 [TSA, trichostatin A]
synthesis of new ErbB2 transcripts [1]: profoundly suppresses synthesis of new ErbB2 transcripts | effect on episomal ErbB2 promoter-driven reporter (stimulation) (ErbB2 promoter): > 10 fold
